This note sets out measurements from paper PMC5365662, “A Short Double-Stapled Peptide Inhibits Respiratory Syncytial Virus Entry and Spreading” (Antimicrobial Agents and Chemotherapy, 2017).

What is called half-life is the time needed for the level to fall by half in the phase considered. In general, EC50 refers to the concentration giving half of the maximal effect. A lower EC50 goes with higher potency in that assay.

Data set [1] is described as follows: Proteolytic stability assay, chymotrypsin. It is filed as in vitro ADME. As to conditions: chymotrypsin (isolated protease); 10 μl peptide 0.29 mM in 990 μl 100 mM Tris-HCl pH 8.0, 10 mM CaCl2; 10 μl chymotrypsin 50 μg/ml; 25°C; LC-MS of intact peptide, exponential decay fit; 3 experiments. On the procedure: This is an important parameter to assess for the development of peptide therapeutics. Peptides 4bb, 4ca, and 4a, and the unstapled analog peptide 4, as well as both SAH-RSVFBD isomers, were treated with chymotrypsin or trypsin, and the samples were analyzed by LC/MS to quantify the reaction products over time. […] In comparison, both SAH-RSVFBD isomers were more susceptible to proteolytic degradation, with half-lives of approximately 7 h and 5 min against chymotrypsin and trypsin, respectively.
In vitro proteolytic degradation was measured via LC-MS using an Agilent Infinity 1280 UHPLC system coupled to an Agilent quadrupole time of flight (QTOF) 6530 instrument with an Agilent Jet Stream electrospray ionization (AJS ESI) source (all from Agilent Technologies, Waldbronn, Germany). Five microliters of digested sample was injected onto a C18 column (Zorbax Eclipse Plus RRHD, 1.8 μm, 2.1 by 100 mm; Agilent Technologies, Waldbronn, Germany) equilibrated with solvent A (5% acetonitrile, 0.2% formic acid) and eluted with a flow rate of 0.4 ml/min over a 5 to 95% gradient of solvent B (95% acetonitrile, 0.2% formic acid) in 5 min, followed by 1.5 min at 95% and 0.5 min posttime. The AJS ESI source was operated with a capillary voltage of 4,000 V and a nozzle voltage of 600 V with a drying gas temperature of 325°C and flow rate of 10 liters/min, nebulizing gas pressure of 20 lb/in^2, and a sheath gas temperature of 300°C and flow rate of 11 liters/min. Mass spectra were acquired in the positive-ion mode from 100 to 3,200 m/z at a rate of 1 scan per second in extended dynamic range (2 GHz) mode. The fragmentor, skimmer, and octopole RF voltages were set to 200, 60, and 750 V, respectively. Data were acquired and analyzed with the Agilent MassHunter Workstation (version B.05).
Peptide digestion was performed as follows: 10 μl of peptide at 0.29 mM in 50:50 acetonitrile-water was dissolved in 990 μl 100 mM Tris-HCl (pH 8.0) with 10 mM CaCl2. Following measurement of the undigested (t0) sample, 10 μl of chymotrypsin at 50 μg/ml in 100 mM Tris-HCl (pH 8.0) with 10 mM CaCl2 was added, and the sample was vortexed and placed immediately in the autosampler, set to 25°C. The level of intact peptide was quantified by serial injection over time. Integration of the intact peptide compound chromatogram was performed using the Agilent Molecular Feature Extraction (MFE) algorithm. The value of the fit at t = 0 min was used to calculate the percentage of the intact peptide at each point as follows: Percent intact (t) = [Vol (t)/Volt0] × 100, where Vol is the total volume calculated using Find Compounds by Molecular Feature and Volt0 is the value of the fit at time t = 0. A plot of the intact peptide MFE peak area over time gave an exponential decay curve, from which the half-life was determined using MatLab […].

Data set [2] is classed as in vivo. Particulars: noninfected mice, same i.n. protocol, blood 1 month after first inoculation, ELISA, data not shown. The method, then: To investigate this further, peptide 4ca was administered to noninfected animals according to the same protocol. The blood of mice was collected 1 month after the first inoculation, and the presence of anti-4ca antibodies in the sera of these animals was analyzed by enzyme-linked immunosorbent assay (ELISA).

The nature of data set [3]: Far-UV circular dichroism, α-helical content. Particulars: CD, 10 mM phosphate buffer pH 7.5, 50 μM peptide, 25°C. In kind it is physicochemical. On the procedure:
The circular dichroism spectra were acquired on a Chirascan spectropolarimeter. The samples were prepared in 10 mM phosphate buffer, pH 7.5, at a peptide concentration of 50 μM. Data were recorded at 25°C by step scan from 180 nm to 260 nm in a 0.5-mm path length quartz cell using 1-nm wavelength increments and a response time of 1 s. The data were converted to per residue molar ellipticity units [θ] (degree per square centimeter per decimole per residue) and smoothed using the Igor Pro software. The percentage of helicity was calculated as described previously ([35]).
On the technique in general: Circular dichroism is widely used to follow secondary structure.

Data set [4] concerns rHRSV-mCherry in HEp-2 cells. As to the kind of experiment: rHRSV-mCherry inhibition assay. It is filed as cell-based, human respiratory syncytial virus. In outline:
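HEp-2 cells infected at MOI 0.2 with rHRSV-mCherry preincubated 15–20 min with serially diluted peptide, peptide kept in 2% FBS medium for 48 h at 37°C. Replication read as mCherry fluorescence (ex 580/em 620 nm), normalized to untreated infected cells; duplicates, curves fitted.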

Data set [5] can be described thus: Temperature-dependent CD (T ramp), oligomeric state. In kind it is physicochemical. Particulars: 25 and 50 μM peptide, 25°C to 90°C in 5°C increments. The method, then: The temperature was increased from 25°C to 90°C in 5°C increments. […] Next, HEp-2 cells were infected with a recombinant RSV expressing the mCherry reported gene ([24]), and the inhibitory activity of the double-stapled peptides was quantified by fluorescence readout.
B) […]. The cell holding the sample was heating at the desired temperature and the CD spectra was measured as described in material and methods. The temperature was increased from 25 °C to 90 °C by 5 °C increments.
Panel C) and D) are the CD curve performed at 25 °C prior to increase the temperature (unheated) and after letting the sample heated at 90 °C (heated) cool down to 25 °C. […]

Structures are written as SMILES. Entries after “also recorded” stand apart in the source; their conditions may differ. Bridge positions count the residues as written; N and C are the ends. Square brackets hold non-standard residues; d marks the D form. Peptide text beside a SMILES is read from it. R5 = C=CCCC[C@@](C)(N)C(=O)O; S5 = C=CCCC[C@](C)(N)C(=O)O

Compound `CC[C@H](C)[C@@H]1NC(=O)[C@H](Cc2ccccc2)NC(=O)[C@@](C)(NC(=O)[C@H](CC(C)C)NC(=O)[C@H](CO)NC(=O)[C@]2(C)CCCC=CCCC[C@@](C)(NC(=O)[C@H](CCC(=O)O)NC(C)=O)C(=O)N[C@@H]([C@@H](C)CC)C(=O)N[C@@H](CC(N)=O)C(=O)N2)CCCC=CCCC[C@@](C)(C(=O)N[C@@H](CO)C(=O)N[C@@H](CC(=O)O)C(=O)N[C@@H](CCC(=O)O)C(=O)N[C@@H](CC(C)C)C(=O)N[C@@H](CC(C)C)C(=O)N[C@@H](Cc2c[nH]cn2)C(=O)N[C@@H](CC(N)=O)C(=O)N[C@H](C(N)=O)C(C)C)NC(=O)[C@H](CCCNC(=N)N)NC1=O` [Peptide 4ca] (Ac-E[R5]IN[S5]SL[S5]FIR[S5]SDELLHNV-NH2; staple 2-5, 8-12) had a half-life at 2.9 µM in data set [1] of 180 h. Moreover, the “antibodies specific to 4ca in sera (anti-IgG1, anti-IgG2a, anti-IgA)” value in data set [2] is “no antibodies specific to 4ca could be detected”. The entries for the “% Helicity” value in data set [3] (Table 2) and in data set [3] (Table 3 (Ala scan)) were greater than 100% and 85%, respectively. Besides, the 50% effective concentration (EC50) in data set [4] (HEp-2, rHRSV-mCherry MOI 0.2, addition of peptide after infection of cells, 48 h p.i.) worked out at 8.3 µM; in data set [4] (HEp-2, rHRSV-mCherry MOI 0.2, preincubation of the virus with peptide prior to cell infection, 48 h p.i.), 0.86 µM; in data set [4] (HEp-2, rHRSV-mCherry MOI 0.2, preincubation of virus with peptide and peptide maintained in medium after infection, 48 h p.i.) it was 0.47 µM; in data set [4] (HEp-2 cells, RSV-Cherry MOI 0.2, peptide and virus removed after infection and fresh peptide added, mCherry fluorescence 48 h p.i., at least twice in duplicate), 0.59 ± 0.13 µM; in data set [4] (Table 3 (Ala scan), HEp-2 cells, rHRSV-mCherry MOI 0.2, 2-fold serial dilutions (11 dilutions), duplicate, ± SD of fit) it was 0.78 ± 0.06 µM. Moreover, in data set [4] (HEp-2, rHRSV-mCherry, EC50 versus T118 EC50 6.33 μM), the “increase of antiviral potency relative to T118” value worked out at 11 fold. In addition, the “conformational change / aggregation on temperature ramping” value in data set [5] is recorded as “No significant conformational change; also recorded: does not aggregate”.
